Marks after values point to notes of the source that are not given here. One block for each compound: values may come before it.
Key:
[1] = Pharmacokinetic properties of rats (bioavailability); format: in vivo; details: rat, po; male SD rats; intravenous 1 mg/kg, intragastric 5 mg/kg; plasma LC/MS/MS
Description: Male SD rats were randomly assigned to each group, 12 rats in each compound group, and then randomly divided into two groups. Six rats were administered intravenously (1 mg/kg), and blood was collected and plasma was separated respectively at 0.0833, 0.25, 0.5, 1, 2, 4, 6, 8, and 24 hours after administration. The other six rats were administered intragastrically (5 mg/kg), and blood was collected and plasma was separated respectively at 0.25, 0.5, 1, 2, 4, 6, 8, and 24 hours after administration. The concentration of each compound in plasma was determined by LC/MS/MS method, and the relevant pharmacokinetic parameters were calculated by using the software Phoenix WinNonlin 6.2.1, the bioavailability in rats was calculated, and the pharmacokinetic properties of each compound were evaluated.

rabbit ear acne model [2] = test: Rabbit ear acne model: epidermal thickness, hair follicle area, sebaceous gland diameter; format: in vivo, New Zealand rabbits; details: rabbit right ear
From the text: (§1) New Zealand rabbits were, according to weights, randomly divided into the model control group (applied cream matrix), positive treatment group (applied Differin on the skin), CLY-1 external treatment group (0.25% CLY-1 cream on the skin), CLY-2 external treatment group (0.25% CLY-2 cream on the skin), CLY-3 external treatment group (0.25% CLY-3 cream on the skin), CLY-4 external treatment group (0.25% CLY-4 cream on the skin) CLY-8 external treatment group (0.25% CLY-8 cream on the skin), CLY-9 external treatment group (0.25% CLY-9 cream on the skin), CLY-11 external treatment group (0.25% CLY-11 cream on the skin), CLY-19 external treatment group (0.25% CLY-19 cream on the skin), CLY-36 external treatment group (0.25% CLY-36 cream on the skin); CLY-1 intravenous injection group (1 mg/kg·d), CLY-2 intravenous injection group (1 mg/kg·d), CLY-3 intravenous injection group (1 mg/kg·d), CLY-4 intravenous injection group (1 mg/kg·d), CLY-8 intravenous injection group (1 mg/kg·d), CLY-9 intravenous injection group (1 mg/kg·d), CLY-11 intravenous injection group (1 mg/kg·d), CLY-19 intravenous injection group (1 mg/kg·d), and CLY-36 intravenous injection group (1 mg/kg·d), with 10 in each group. Took the inner side of the rabbit's right ear for depilation treatment as the observation area, and the inner side of the left ear of all rabbits as their own negative control, and applied 95% alcohol. The inner side of the right ear of the model group and the treatment group were both coated with 2% coal tar (Alfa Aesar China, which used 95% alcohol to prepare 2% coal tar solution), and evenly applied the sterile cotton swab to the opening of the ear duct on the inner side of the rabbit's ear within the range of about 2 cm×2 cm, once a day, 0.5 mL each time, and wiped the previous application site with warm water for 14 consecutive days to establish the acne micro-pigmentation model. Visually observed the changes of local skin, including ear thickness, hardness, roughness, and whether there was a black angle plug at the hair follicle mouth. 18 hours after the last application, the sample was sacrificed and skin was taken. The skin tissue was taken from the application site by using a 5 mm punch, fixed with 10% formaldehyde, embedded in paraffin, and stained with HE. The histopathological observation and analysis were carried out.
The histopathological changes were observed under the microscope, and the thickness of five different epidermises on a slice was measured with the Biomias99 image analysis system, and the average value was calculated; Detected the area of the two hair follicles and the diameter of the four sebaceous glands with the same position and the most complete structure in the four sections, calculated their average values, and then subtracted the data of the left and right external auditory canal of the rabbits in each group to obtain the difference in the thickness of the left and right ear epidermis, the difference in the area of the hair follicles and the difference in the diameter of the sebaceous glands.
(§2) SPSS16 software was used for statistical analysis. The paired t-test was used for the left and right self-contrast, and the t-test was used for the comparison between the groups, P<0.05 was statistically significant.

rabbit ear acne model [3] = test: Rabbit ear acne model: macroscopic observation and histological grading; format: in vivo, New Zealand rabbits; details: for number of rabbits with acne histological grading 2+: Grade 2; for number of rabbits with acne histological grading 2+ / number of rabbits with acne histological grading — / number of rabbits with acne histological grading 1+ / number of rabbits with acne histological grading 3+: right ear, 10 per group; for number of rabbits with acne histological grading —: Level 0, without acne; for number of rabbits with acne histological grading 1+: Level 1; for number of rabbits with acne histological grading 3+: Level 3
From the text: (1) Preparation method of treatment cream: The excipient matrix components included methyl silicone oil (15%), stearic acid (6%), white vaseline (5%), liquid paraffin (5%), octadecanol (5%), glycerin (20%), alkyl aryl polyglycol ether (1%), fatty alcohol polyoxyethylene ether (1%), […] (1%), ethyl paraben (0.1%), distilled water (about 31-55%), and mixed with appropriate amount of CLY series compounds to form a mixed emulsion. The emulsion matrix used in this embodiment refers to the matrix component after the active ingredient was removed from the emulsion.
(2) Positive therapeutic drug: 0.1% adapalene gel (Trade name: Differin, produced by Laboratoires Galderma, France).
as §1
The histological grading criteria of the acne model: 3 grades according to histological grade. […] The tight keratin embolism in the hair follicles causes severe expansion of the hair follicles, obvious hyperplasia of the sebaceous duct epithelium, skin bulges and scars, and some sebaceous glands degenerate “3±”.
as §2

[4] = external use (0.25% CLY cream; positive: Differin)
[5] = intravenous injection 1 mg/kg·d

SMILES: O=C(c1ccc(-c2cccc(-c3nnn[nH]3)c2)cc1)N(c1ncccc1Cl)[C@@H]1CCNC1 [CLY-18]
bioavailability [1]: 46.9%

SMILES: Nc1ccccc1-c1ccc(C(=O)N(c2ncccc2Cl)[C@@H]2CCNC2)cc1 [CLY-28]
bioavailability [1]: 42.6%

SMILES: COC1CCC[C@@H](N(C(=O)c2cccc(-c3nnn[nH]3)c2)c2ncccc2Cl)C1 (some centres unmarked) [CLY-17]
bioavailability [1]: 52.5%

SMILES: O=C(c1ccc(-c2ccc(Cl)cc2)cc1)N(c1ncccc1Cl)[C@@H]1CCCNC1 [CLY-26]
bioavailability [1]: 48.5%

SMILES: O=C(c1ccccc1-c1nnn[nH]1)N(c1ncccc1Cl)[C@@H]1CCCNC1 [CLY-21]
bioavailability [1]: 49.6%

SMILES: COc1ccc(-c2ccc3cc(C(=O)O)ccc3c2)cc1C12CC3CC(CC(C3)C1)C2 [Positive treatment group, adapalene, reference compound]
epidermal thickness (rabbit ear acne model [2]; [4]): 0.2389 ± 0.0176 mm
hair follicle area (rabbit ear acne model [2]; [4]): 0.2789 ± 0.0926* mm^2
sebaceous gland diameter (rabbit ear acne model [2]; [4]): 0.0723 ± 0.0387 mm
number of rabbits with acne histological grading 2+ (rabbit ear acne model [3]; [4]): 3
number of rabbits with acne histological grading — (rabbit ear acne model [3]; [4]): 5
number of rabbits with acne histological grading 1+ (rabbit ear acne model [3]; [4]): 2
number of rabbits with acne histological grading 3+ (rabbit ear acne model [3]; [4]): 0
macroscopic observation of right ear (rabbit ear acne model [3]; after 14 days of coal tar, external treatment): slightly red, with a little desquamation and a small amount of acne

SMILES: O=C(c1ccc(-n2nnc3cccnc32)cc1)N(c1ncccc1Cl)[C@@H]1CCCN1 [CLY-9]
epidermal thickness (rabbit ear acne model [2]; [4]): 0.2389 ± 0.0189 mm
hair follicle area (rabbit ear acne model [2]; [4]): 0.2834 ± 0.0981* mm^2
sebaceous gland diameter (rabbit ear acne model [2]; [4]): 0.0715 ± 0.0412 mm
epidermal thickness (rabbit ear acne model [2]; [5]): 0.2126 ± 0.0167 mm
hair follicle area (rabbit ear acne model [2]; [5]): 0.2327 ± 0.0865* mm^2
sebaceous gland diameter (rabbit ear acne model [2]; [5]): 0.0614 ± 0.0396 mm
number of rabbits with acne histological grading 2+ (rabbit ear acne model [3]; [4]): 1
number of rabbits with acne histological grading 2+ (rabbit ear acne model [3]; [5]): 0
number of rabbits with acne histological grading — (rabbit ear acne model [3]; [4]): 5
number of rabbits with acne histological grading — (rabbit ear acne model [3]; [5]): 7
number of rabbits with acne histological grading 1+ (rabbit ear acne model [3]; [4]): 4
number of rabbits with acne histological grading 1+ (rabbit ear acne model [3]; [5]): 3
number of rabbits with acne histological grading 3+ (rabbit ear acne model [3]; [4]): 0
number of rabbits with acne histological grading 3+ (rabbit ear acne model [3]; [5]): 0

Now from value to compound:

bioavailability [1]: 62.2%
SMILES: CCN1CCC[C@@H](N(C(=O)c2ccc(-c3ccc(Cl)cc3)cc2)c2ncccc2Cl)C1 [CLY-35]

bioavailability [1]: 58.6%
SMILES: CN1CCC[C@@H](N(C(=O)c2ccc(-c3ccccc3)cc2)c2ncccc2Cl)C1 [CLY-32]

bioavailability [1]: 56.5%
SMILES: O=C(c1ccccc1Cl)N(c1ncccc1Cl)[C@@H]1CCCNC1 [CLY-37]

bioavailability [1]: 50.6%
SMILES: CC(C)C(=O)OC(C)n1nnc(-c2c(-c3ccc(C(=O)N(c4ncccc4Cl)C4CCNC4)cc3)cnn2C)n1 [CLY-44, 1-(5-(4-(4-((3-chloropyridin-2-yl) (((R)-pyrrolidin-3-yl)carbamoyl)phenyl)-1-methyl-1H-pyrazol-5-yl)-2H-tetrazol-2-yl)ethyl isobutyrate]

bioavailability [1]: 46.2%
SMILES: Cc1ccccc1-c1ccc(C(=O)N(c2ncccc2Cl)[C@@H]2CCNC2)cc1 [CLY-30]

Reference: patent US20240300945A1, “CLY SERIES COMPOUND, PREPARATION METHOD THEREFOR AND USE THEREOF IN PREPARATION OF DRUGS” (NANJING WELLBEST PHARMACEUTICAL CO., LTD, priority 2021, published 2024)
